Source: patent US20220251114A1, “AZEPINES AS HBV CAPSID ASSEMBLY MODULATORS” (Janssen Sciences Ireland Unlimited Company, priority 2019, published 2022)

Each compound was assayed on HBV (assay: HBV replication inhibition assay (BDNA assay) in HepG2.2.15 cells). Conditions: Hepatitis B virus, 144 h, 6 days treatment, encapsidated HBV DNA in supernatant by branched DNA QuantiGene assay.
Type: cell-based
Description: HBV replication inhibition by the disclosed compounds were determined in cells infected or transfected with HBV or cells with stably integrated HBV, such as HepG2.2.15 cells (Sells et al. 1987). In this example, HepG2.2.15 cells were maintained in cell culture medium containing 10% fetal bovine serum (FBS), Geneticin, L-glutamine, penicillin and streptomycin. HepG2.2.15 cells were seeded in 96-well plates at a density of 40,000 cells/well and were treated with serially diluted compounds at a final DMSO concentration of 0.5% either alone or in combination by adding drugs in a checker box format. Cells were incubated with compounds for three days, after which medium was removed and fresh medium containing compounds was added to cells and incubated for another three days. At day 6, supernatant was removed and treated with DNase at 37° C. for 60 minutes, followed by enzyme inactivation at 75° C. for 15 minutes. Encapsidated HBV DNA was released from the virions and covalently linked HBV polymerase by incubating in lysis buffer (Affymetrix QS0010) containing 2.5 μg proteinase K at 50° C. for 40 minutes. HBV DNA was denatured by addition of 0.2 M NaOH and detected using a branched DNA (BDNA) QuantiGene assay kit according to manufacturer recommendation (Affymetrix). HBV DNA levels were also quantified using qPCR, based on amplification of encapsidated HBV DNA extraction with QuickExtraction Solution (Epicentre Biotechnologies) and amplification of HBV DNA using HBV specific PCR probes that can hybridize to HBV DNA and a fluorescently labeled probe for quantitation. In addition, cell viability of HepG2.2.15 cells incubated with test compounds alone or in combination was determined by using CellTitre-Glo reagent according to the manufacturer protocol (Promega). The mean background signal from wells containing only culture medium was subtracted from all other samples, and percent inhibition at each compound concentration was calculated by normalizing to signals from HepG2.2.15 cells treated with 0.5% DMSO using equation El.
E1: % inhibition=(DMSOave−Xi)/DMSOave×100%
where DMSOave is the mean signal calculated from the wells that were treated with DMSO control (0% inhibition control) and Xi is the signal measured from the individual wells. EC50 values, effective concentrations that achieved 50% inhibitory effect, were determined by non-linear fitting using Graphpad Prism software (San Diego, Calif.) and equation E2.
E2: Y=Ymin+(Ymax−Ymin)/(1+10(Log EC50-X)×HillSlope)
where Y represents percent inhibition values and X represents the logarithm of compound concentrations.
Selected disclosed compounds were assayed in the HBV replication assay (BDNA assay), as described above, and a representative group of these active compounds is shown in Table 3.
For N#Cc1cc(NC(=O)N2CCc3nn4c(c3C2)OCC=C(CO)C4)ccc1F [Example 1, N-(3-Cyano-4-fluorophenyl)-4-(hydroxymethyl)-5,8,9,11-tetrahydropyrido-[4′,3′:3,4]pyrazolo[5,1-b] [1,3] oxazepine-10(2H)-carboxamide], the EC50 was 18 nM. For N#Cc1cc(NC(=O)N2CCc3nn4c(c3C2)SCCC(O)C4)ccc1F (stereo not shown) [Example 2, N-(3-Cyano-4-fluorophenyl)-4-hydroxy-2,3,4,5,8,9-hexahydropyrido[4′,3′:3,4]-byrazolo[5,1-b][1,3]thiazepine-10(11H)-carboxamide], the EC50 was 15 nM. For N#Cc1cc(NC(=O)N2CCc3nn4c(c3C2)SCC(O)CC4)ccc1F (stereo not shown) [Example 3, N-(3-Cyano-4-fluorophenyl)-3-hydroxy-2,3,4,5,8,9-hexahydropyrido[4′,3′:3,4]-pyrazolo[5,1-b][1,3]thiazepine-10(11H)-carboxamide], the EC50 was 5 nM. With N#Cc1cc(NC(=O)N2CCc3nn4c(c3C2)[S+]([O-])CCC(O)C4)ccc1F (stereo not shown) [Example 4, N-(3-Cyano-4-fluorophenyl)-4-hydroxy-2,3,4,5,8,9-hexahydropyrido[4′,3′:3,4]-pyrazolo[5,1-b][1,3]thiazepine-10(11H)-carboxamide 1-oxide] the EC50 was 834 nM. N#Cc1cc(NC(=O)N2CCc3nn4c(c3C2)S(=O)(=O)CCC(O)C4)ccc1F (stereo not shown) [Example 5, N-(3-Cyano-4-fluorophenyl)-4-hydroxy-2,3,4,5,8,9-hexahydropyrido[4′,3′:3,4]-pyrazolo[5,1-b][1,3]thiazepine-10(11H)-carboxamide 1,1-dioxide] was tested, and the EC50 was 40 nM. Work on N#Cc1cc(NC(=O)N2CCc3nn4c(c3C2)[S+]([O-])CC(O)CC4)ccc1F (stereo not shown) [Example 6, N-(3-Cyano-4-fluorophenyl)-3-hydroxy-2,3,4,5,8,9-hexahydropyrido[4′,3′:3,4]-pyrazolo[5,1-b][1,3]thiazepine-10(11H)-carboxamide 1-oxide] yielded an EC50 of 141 nM. N#Cc1cc(NC(=O)N2CCc3nn4c(c3C2)S(=O)(=O)CC(O)CC4)ccc1F (stereo not shown) [Example 7, N-(3-Cyano-4-fluorophenyl)-3-hydroxy-2,3,4,5,8,9-hexahydropyrido[4′,3′:3,4]-pyrazolo[5,1-b][1,3]thiazepine-10(11H)-carboxamide 1,1-dioxide] showed an EC50 of 3.5 nM.
